These results are taken from ChEMBL document CHEMBL1149625, “Rational design of 6-(2,4-diaminopyrimidinyl)-1,4-benzoxazin-3-ones as small molecule renin inhibitors” (Bioorg Med Chem, 2007).

Values after ≈ are worked out from the molar mass of the structure shown.

One data set in a line: physchem. The following applies: aqueous, pH 6.5, Solubility.
A short description of data set [1]: in vivo. The following applies: rat, po, 10 mg/kg.
Data set [2] is described as follows: in vivo. The following applies: rat, po, 10 mg/kg. This is another data set of the same source.
Data set [3] is described as follows: in vivo. The following applies: rat, iv, 1 mg/kg.
A short description of data set [4]: Volume of distribution at steady state in rat at 1 mg/kg, iv or 5 mg/kg, po. Type of data set: ADME, organism-based. The following applies: in vivo, read-out: Vdss.
Data set [5] can be described thus: Cmax in rat at 1 mg/kg, iv or 5 mg/kg, po. As to conditions: in vivo. The format is ADME, organism-based.
For data set [6] the following is noted: buffer, pH 6.5.
Data set [7] in a line: Bioavailability in rat at 5 mg/kg, po. Type of data set: ADME, organism-based. As to conditions: in vivo.
Data set [8] is described as follows: Cmax in rat at […], iv or […], po. As to conditions: in vivo. Type of data set: ADME, organism-based.
A short description of data set [9]: Bioavailability in rat at […], po. Type of data set: ADME, organism-based. As to conditions: in vivo.
Data set [10] in a line: Volume of distribution at steady state in rat at […], iv or […], po. The format is ADME, organism-based. As to conditions: in vivo, read-out: Vdss.
Data set [11] is described as follows: Bioavailability in dog at 5 mg/kg, po. The format is ADME, organism-based, Canis lupus familiaris. The following applies: in vivo.

For the molecule `CCc1nc(N)nc(N)c1-c1ccc2c(c1)N(CCCOC)C(=O)C(CC)(CC)O2`, the solubility in the data set “physchem” stood at 16 µg/mL (≈ 38.7 µM).

In the data set “physchem”, `CCc1nc(N)nc(N)c1-c1ccc2c(c1)N(CCNC(C)=O)C(=O)C1(CC1)O2` gave a solubility of 24 µg/mL (≈ 60.5 µM).

In “physchem”, `CCc1nc(N)nc(N)c1-c1ccc2c(c1)N(CCNC(C)=O)C(=O)[C@@](C)(c1ccccc1)O2` returned a solubility of 40 µg/mL (≈ 86.9 µM).

With `CCc1nc(N)nc(N)c1-c1ccc2c(c1)N(CCCC(F)(F)F)C(=O)C(C)(c1cc(F)cc(F)c1)O2` (racemic), in “in vivo [1]”, the concentration peaked (Cmax) at 160 ng/mL. Besides, the bioavailability in the data set “in vivo [2]” is 12%. In the data set “in vivo [3]”, the Vd worked out at 5.1 L/kg. In “physchem”, the concentration in solution (solubility) came to 5.2 µg/mL (≈ 9.97 µM).

In the case of `CCc1nc(N)nc(N)c1-c1ccc2c(c1)N(CCCC#N)C(=O)C(C)(c1cc(F)cc(F)c1)O2` (stereo not given), the concentration in the data set “in vivo [1]” peaked (Cmax) at 237 ng/mL. In “in vivo [2]”, this molecule showed a bioavailability of 12%. In the data set “in vivo [3]”, this molecule showed a Vd of 1.9 L/kg. Besides, in the data set “physchem”, the solubility amounted to 3.5 µg/mL (≈ 7.31 µM).

On to `CCc1nc(N)nc(N)c1-c1ccc2c(c1)N(CCCOC)C(=O)C(C)(C)O2`, for which the solubility in the data set “physchem” was found to be 34 µg/mL (≈ 88.2 µM).

The molecule `CCc1nc(N)nc(N)c1-c1ccc2c(c1)N(CCC(=O)NC)C(=O)C(C)(c1cc(F)cc(F)c1)O2` (stereo not given) yielded a solubility in the data set “physchem” of 133 µg/mL (≈ 268 µM). For the same molecule, the Vd in data set [4] came out at 2.1 L/kg.

`CCc1nc(N)nc(N)c1-c1ccc2c(c1)N(CCNC(=O)OC)C(=O)C(C)(c1cc(F)cc(F)c1)O2` (stereo not given) had a Cmax in “in vivo [1]” of 280 ng/mL. The molecule further showed a bioavailability in “in vivo [2]” of 34%. The Vd in “in vivo [3]” was found to be 3.5 L/kg.

`CCc1nc(N)nc(N)c1-c1ccc2c(c1)N(CCNC(C)=O)C(=O)C(C)(C(F)(F)F)O2` (stereo not given) registered a solubility in the data set “physchem” of 200 µg/mL (≈ 442 µM).

Consider `CCc1nc(N)nc(N)c1-c1ccc2c(c1)N(CCCOC)C(=O)C(C)(CC)O2` (stereo not given), for which the concentration in solution in “physchem” (solubility) came to 54 µg/mL (≈ 135 µM).

Regarding `CCc1nc(N)nc(N)c1-c1ccc2c(c1)N(CCCOC)C(=O)C(C)(c1cc(F)cc(F)c1)O2` (racemic), the Cmax in data set [5] was 23 ng/mL. In data set [4], the Vd came to 4.5 L/kg. Moreover, the solubility in data set [6] stood at 87 µg/mL (≈ 180 µM). The molecule further returned a bioavailability in [7] of 0.4%.

The molecule `CCc1nc(N)nc(N)c1-c1ccc2c(c1)N(CCNC(C)=O)C(=O)C(C)(c1cccc(Cl)c1)O2` (racemic) came in with a solubility in “physchem” of 133 µg/mL (≈ 269 µM).

On to `CCc1nc(N)nc(N)c1-c1ccc2c(c1)N(CCNC(=O)CO)C(=O)C(C)(c1cc(F)cc(F)c1)O2` (stereo not given), for which the solubility in the data set “physchem” was 59 µg/mL (≈ 115 µM). Besides, the Vd in data set [4] is 2.9 L/kg.

On to `CCOCCCN1C(=O)C(C)(c2cc(F)cc(F)c2)Oc2ccc(-c3c(N)nc(N)nc3CC)cc21` (stereo not given), for which the concentration in solution in “physchem” (solubility) came to 59 µg/mL (≈ 119 µM). For the same molecule, the Cmax in data set [8] is less than 5 ng/mL. The molecule further registered a bioavailability in data set [9] of 0%. Besides, the Vd in [10] was 2 L/kg.

`CCc1nc(N)nc(N)c1-c1ccc2c(c1)N(CCNC(C)=O)C(=O)[C@](C)(c1ccccc1)O2` yielded a solubility in “physchem” of 119 µg/mL (≈ 258 µM).

In the data set “in vivo [3]”, `CCc1nc(N)nc(N)c1-c1ccc2c(c1)N(CCO)C(=O)C(C)(c1cc(F)cc(F)c1)O2` (stereo not given) gave a Vd of 3.3 L/kg. The same molecule came in with a solubility in the data set “physchem” of 89 µg/mL (≈ 195 µM).

On to `CCc1nc(N)nc(N)c1-c1ccc2c(c1)N(CCCOC)C(=O)C(C)(c1cc(F)cc(F)c1)O2` (stereo in doubt; 25), for which the solubility in “physchem” is 87 µg/mL (≈ 180 µM).

As for `CCc1nc(N)nc(N)c1-c1ccc2c(c1)N(CCCOC(F)(F)F)C(=O)C(C)(c1cc(F)cc(F)c1)O2` (stereo not given), the highest level in the data set “in vivo [1]” (Cmax) was 200 ng/mL. Besides, the bioavailability in “in vivo [2]” was found to be 28%. For the same molecule, the Vd in “in vivo [3]” was 6.3 L/kg. Further, the concentration in solution in the data set “physchem” (solubility) came to 7.8 µg/mL (≈ 14.5 µM).

As to `CCc1nc(N)nc(N)c1-c1ccc2c(c1)N(CCCO)C(=O)C(C)(c1cc(F)cc(F)c1)O2` (stereo not given), the Cmax in data set [5] was found to be 180 ng/mL. The solubility in “physchem” turned out to be 28 µg/mL (≈ 59.6 µM). Besides, the Vd in [4] worked out at 3.1 L/kg. Also, the bioavailability in [7] is 44%.

In turn, `CCc1nc(N)nc(N)c1-c1ccc2c(c1)N(CCNC(C)=O)C(=O)C(C)(c1ccc(Cl)cc1)O2` (racemic) returned a solubility in the data set “physchem” of 12 µg/mL (≈ 24.2 µM).

As to `CCc1nc(N)nc(N)c1-c1ccc2c(c1)N(CCNC(C)=O)C(=O)C(C)(c1cc(F)cc(F)c1)O2` (racemic), the solubility in data set [6] was 133 µg/mL (≈ 268 µM).

On to `CCc1nc(N)nc(N)c1-c1ccc2c(c1)N(CCNC(C)=O)C(=O)C(C)(c1cccc(C(F)(F)F)c1)O2` (racemic), for which, in the data set “physchem”, the solubility came out at 12 µg/mL (≈ 22.7 µM).

As for `CCNC(=O)CN1C(=O)C(C)(c2cc(F)cc(F)c2)Oc2ccc(-c3c(N)nc(N)nc3CC)cc21` (stereo not given), the solubility in the data set “physchem” was determined as 89 µg/mL (≈ 179 µM). For the same molecule, the peak level in data set [8] (Cmax) was 60 ng/mL. Besides, in data set [9], the bioavailability came to 14%. Further, the Vd in [10] stood at 3.1 L/kg.

In “physchem”, `CCc1nc(N)nc(N)c1-c1ccc2c(c1)N(CCCOC)C(=O)C(C)(c1ccc(F)c(F)c1)O2` (racemic) returned a solubility of 13 µg/mL (≈ 26.9 µM).

With `CCc1nc(N)nc(N)c1-c1ccc2c(c1)N(CCNS(C)(=O)=O)C(=O)C(C)(c1cc(F)cc(F)c1)O2` (stereo not given), the concentration in solution in the data set “physchem” (solubility) came to 200 µg/mL (≈ 376 µM).

In turn, `CCc1nc(N)nc(N)c1-c1ccc2c(c1)N(CCNC(C)=O)C(=O)C(C)(c1cc(F)ccc1F)O2` (racemic) gave a solubility in “physchem” of 2.3 µg/mL (≈ 4.63 µM).

As to `CCc1nc(N)nc(N)c1-c1ccc2c(c1)N(CCCCO)C(=O)C(C)(c1cc(F)cc(F)c1)O2` (stereo not given), in the data set “in vivo [1]”, the Cmax worked out at 186 ng/mL. Moreover, the bioavailability in the data set “in vivo [2]” was found to be 7%. In addition, the Vd in “in vivo [3]” was found to be 2.3 L/kg. Moreover, the solubility in “physchem” stood at 59 µg/mL (≈ 122 µM).

`CCc1nc(N)nc(N)c1-c1ccc2c(c1)N(CCNC(C)=O)C(=O)C(C)(c1cc(F)cc(F)c1)O2` (stereo in doubt; 26): in data set [5], the Cmax was found to be 220 ng/mL. In “physchem”, this molecule gave a solubility of 95 µg/mL (≈ 191 µM). For the same molecule, the Vd in [4] was found to be 2.1 L/kg. In addition, in data set [7], the bioavailability was determined as 8%.

With `CCc1nc(N)nc(N)c1-c1ccc2c(c1)N(CCCC(F)(F)F)C(=O)[C@](C)(c1cc(F)cc(F)c1)O2`, the highest level in the data set “in vivo [1]” (Cmax) was 380 ng/mL. Moreover, the bioavailability came to 74% in “in vivo [2]” and 19% in [11]. Further, in the data set “in vivo [3]”, the Vd turned out to be 5.7 L/kg.

Take `CCc1nc(N)nc(N)c1-c1ccc2c(c1)N(CCCOC)C(=O)C(CC)(c1cc(F)cc(F)c1)O2` (racemic): the solubility in the data set “physchem” was 2.6 µg/mL (≈ 5.23 µM).

For orientation: solubility means the dissolved amount per volume that the medium holds. A high value points to a readily soluble substance. As a reminder, the Cmax is the maximum level reached in the sampled fluid or tissue. The term bioavailability denotes the share of a dose that reaches the circulation, judged against a reference dose that is usually intravenous. Higher therefore signals good availability.
